How the values were obtained:
MIA PaCa-2 = experiment: Anti-proliferation 2D CTG test (MIA PaCa-2); type: cell-based; details: MIAPACA-2 cells, 500 cells/well, 5 days incubation with compound, CTG readout
Method: (§1) When the cell confluency was 80%, the cells were isolated with 0.25% trypsin. The isolated cells were resuspended in 5 mL of fresh cell culture medium and centrifuged to collect the cells. The number of cells were counted at the same time. Then, the cells were suspended in a culture medium at a moderate concentration. The cells were placed into a 96-well plate with 1500 cells/well for H358 and 500 cells/well for MIAPACA-2. The 96-well plate was placed in an incubator at 37° C. and incubated overnight.
(§2) 2) Day 1: processing of compound
(§3) A 2 mM stock solution was serially diluted at 10 points at a ratio of 1:3. 5× culture medium containing the compound was transferred to the corresponding wells of 96 wells. The final peak concentration of the compound was […], and the final concentration of DMSO was 0.5%. The 96-well plate was placed in the incubator at 37° C. and incubated for 5 days.
(§4) 3) Baseline reading. 4) Day 6: reading of signals
(§5) A detection reagent (CTG) was added at 50 μL/well, and the signals were read in an Envision instrument.
(§6) The percentage of inhibition ([…]) at each compound concentration was calculated based on the signals from the HPE and ZPE control wells contained in each assay plate and the fluorescence signals from individual compound wells. The inhibition rate in the ZPE control wells containing the enzyme and substrate was 0%, and the inhibition rate in the HPE control wells only containing the substrate was […]. By testing the compound in terms of numeric concentration and inhibition percentage, the compound concentration required for […] inhibition (IC50) was determined using a four-parameter logarithmic dose-response equation. The endpoint value (IC50) of the reference compound was evaluated in each experiment as a quality control measure. If the endpoint value was within three times the expected value, the experiment was considered acceptable.

H358 = experiment: Anti-proliferation 2D CTG test (H358); type: cell-based; details: H358 cells, 1500 cells/well, 5 days incubation with compound, CTG readout
Method: as §1, §2, §3, §4, §5, §6

[1] = Homo sapiens, MIA PaCa-2, 120 h

## C=CC(=O)N1CCN(c2nc(=O)n3c4nc(c(F)cc24)-c2c(F)cccc2OCC(OC(=O)C(C)C)C(OC(=O)C(C)C)c2ccnc(C(C)C)c2-3)[C@@H](C)C1 (stereo partly drawn) [Example 13, 2^4-((S)-4-acryloyl-2-methylpiperazin-1-yl)-2^6,3^6-difluoro-1^2-isopropyl-2^2-oxo-2^1,2^2-dihydro-4-oxa-2(1,7)-pyrido[2,3-d]pyrimidina-1(3,4)-pyridina-3(1,2)-benzocycloheptane-6,7-diyl di(2-methylpropionate)]
MIA PaCa-2; [1]
  IC50: 5 nM
H358; Homo sapiens, NCI-H358, 120 h
  IC50: 5 nM

## C=CC(=O)N1CCN(c2nc(=O)n3c4nc(c(F)cc24)-c2c(F)cccc2OCC(OC(=O)C2CC2)C(OC(=O)C2CC2)c2ccnc(C(C)C)c2-3)[C@@H](C)C1 (stereo partly drawn) [Example 14, 2^4-((S)-4-acryloyl-2-methylpiperazin-1-yl)-2^6,3^6-difluoro-1^2-isopropyl-2^2-oxo-2^1,2^2-dihydro-4-oxa-2(1,7)-pyrido[2,3-d]pyrimidina-1(3,4)-pyridina-3(1,2)-benzocycloheptane-6,7-diyl dicyclopropanecarboxylate]
MIA PaCa-2; [1]
  IC50: 9 nM
H358; Homo sapiens, NCI-H358, 120 h
  IC50: 6 nM

## C=CC(=O)N1CCN(c2nc(=O)n3c4nc(c(F)cc24)-c2c(F)cccc2OCC(OC(=O)OC(C)(C)C)C(OC(=O)OC(C)(C)C)c2ccnc(C(C)C)c2-3)[C@@H](C)C1 (stereo partly drawn) [Example 15, 2^4-((S)-4-acryloyl-2-methylpiperazin-1-yl)-2^6,3^6-difluoro-1^2-isopropyl-2^2-oxo-2^1,2^2-dihydro-4-oxa-2(1,7)-pyrido[2,3-d]pyrimidina-1(3,4)-pyridina-3(1,2)-benzocycloheptane-6,7-diyl di-tert-butyldi(carbonate)]
MIA PaCa-2; [1]
  IC50: 10 nM
H358; Homo sapiens, NCI-H358, 120 h
  IC50: 12 nM

## C=CC(=O)N1CCN(c2nc(=O)n3c4nc(c(F)cc24)-c2c(F)cccc2OCCC(OC(C)=O)c2ccnc(C(C)C)c2-3)[C@@H](C)C1 (stereo partly drawn) [Example 16, 2^4-((S)-4-acryloyl-2-methylpiperazin-1-yl)-2^6,3^6-difluoro-1^2-isopropyl-2^2-oxo-2^1,2^2-dihydro-4-oxa-2(1,7)-pyrido[2,3-d]pyrimidina-1(3,4)-pyridina-3(1,2)-benzocycloheptane-7-yl acetate]
MIA PaCa-2; [1]
  IC50: 20 nM
H358; Homo sapiens, NCI-H358, 120 h
  IC50: 29 nM

## C=CC(=O)N1CCN(c2nc(=O)n3c4nc(c(F)cc24)-c2c(F)cccc2OCC(OCOC(=O)OC)C(OCOC(=O)OC)c2ccnc(C(C)C)c2-3)[C@@H](C)C1 (stereo partly drawn) [Example 17, ((2^4-((S)-4-acryloyl-2-methylpiperazin-1-yl)-2^6,3^6-difluoro-1^2-isopropyl-2^2-oxo-2^1,2^2-dihydro-4-oxa-2(1,7)-pyrido[2,3-d]pyrimidina-1(3,4)-pyridina-3(1,2)-benzocycloheptane-6,7-diyl)di(oxo))di(methylene) dimethyldi(carbonate)]
MIA PaCa-2; [1]
  IC50: 9 nM
H358; Homo sapiens, NCI-H358, 120 h
  IC50: 9 nM

## C=CC(=O)N1CCN(c2nc(=O)n3c4nc(c(F)cc24)-c2c(F)cccc2OCC(OC(C)=O)C(OC(C)=O)c2ccnc(C(C)C)c2-3)[C@@H](C)C1 (stereo partly drawn) [Example 18, 2^4-((S)-4-acryloyl-2-methylpiperazin-1-yl)-2^6,3^6-difluoro-1^2-isopropyl-2^2-oxo-2^1,2^2-dihydro-4-oxa-2(1,7)-pyrido[2,3-d]pyrimidina-1(3,4)-pyridina-3(1,2)-benzocycloheptane-6,7-diyl diacetate]
MIA PaCa-2; [1]
  IC50: 6 nM
H358; Homo sapiens, NCI-H358, 120 h
  IC50: 14 nM

## C=CC(=O)N1CCN(c2nc(=O)n3c4nc(c(F)cc24)-c2c(F)cccc2OCC(OC(C)=O)C(OC(C)=O)c2ccnc(C(C)C)c2-3)[C@@H](C)C1 (stereo partly drawn) [Example 18-R, (R)-2^4-((S)-4-acryloyl-2-methylpiperazin-1-yl)-2^6,3^6-difluoro-1^2-isopropyl-2^2-oxo-2^1,2^2-dihydro-4-oxa-2(1,7)-pyrido[2,3-d]pyrimidina-1(3,4)-pyridina-3(1,2)-benzocycloheptane-6,7-diyl diacetate]
MIA PaCa-2
  IC50: 15 nM
H358
  IC50: 16 nM

## C=CC(=O)N1CCN(c2nc(=O)n3c4nc(c(F)cc24)-c2c(F)cccc2OCC(OC(C)=O)C(OC(C)=O)c2ccnc(C(C)C)c2-3)[C@@H](C)C1 (stereo partly drawn) [Example 18-S, (S)-2^4-((S)-4-acryloyl-2-methylpiperazin-1-yl)-2^6,3^6-difluoro-1^2-isopropyl-2^2-oxo-2^1,2^2-dihydro-4-oxa-2(1,7)-pyrido[2,3-d]pyrimidina-1(3,4)-pyridina-3(1,2)-benzocycloheptane-6,7-diyl diacetate]
MIA PaCa-2
  IC50: 266 nM
H358
  IC50: 351 nM

## C=CC(=O)N1CCN(c2nc(=O)n3c4nc(c(F)cc24)-c2c(F)cccc2OCC(=O)C(OC(C)=O)c2ccnc(C(C)C)c2-3)[C@@H](C)C1 (stereo partly drawn) [Example 19, 2^4-((S)-4-acryloyl-2-methylpiperazin-1-yl)-2^6,3^6-difluoro-1^2-isopropyl-2^2,6-dioxo-2^1,2^2-dihydro-4-oxa-2(1,7)-pyrido[2,3-d]pyrimidina-1(3,4)-pyridina-3(1,2)-benzocycloheptane-7-yl acetate]
MIA PaCa-2; [1]
  IC50: 18 nM
H358; Homo sapiens, NCI-H358, 120 h
  IC50: 18 nM

## C=CC(=O)N1CCN(c2nc(=O)n3c4nc(c(F)cc24)-c2c(F)cccc2OCC(=O)C(OC(C)=O)c2ccnc(C(C)C)c2-3)[C@@H](C)C1 (stereo partly drawn) [Example 20, (R)-2^4-((S)-4-acryloyl-2-methylpiperazin-1-yl)-2^6,3^6-difluoro-1^2-isopropyl-2^2,6-dioxo-2^1,2^2-dihydro-4-oxa-2(1,7)-pyrido[2,3-d]pyrimidina-(3,4)-pyridina-3(1,2)-benzocycloheptane-7-yl acetate]
MIA PaCa-2
  IC50: 30 nM
H358
  IC50: 25 nM

## C=CC(=O)N1CCN(c2nc(=O)n3c4nc(c(F)cc24)-c2c(F)cccc2OCC(OCC)C(=O)c2ccnc(C(C)C)c2-3)[C@@H](C)C1 (stereo partly drawn) [Example 21, (R)-2^4-((S)-4-acryloyl-2-methylpiperazin-1-yl)-6-ethoxy-2^6,3^6-difluoro-1^2-isopropyl-2^1,2^2-dihydro-4-oxa-2(1,7)-pyrido[2,3-d]pyrimidina-1(3,4)-pyridina-3(1,2)-benzocycloheptane-22,7-dione]
MIA PaCa-2; [1]
  IC50: 153 nM
H358; Homo sapiens, NCI-H358, 120 h
  IC50: 60 nM

## C=CC(=O)N1CCN(c2nc(=O)n3c4nc(c(F)cc24)-c2c(F)cccc2OCC(=O)C(OCC)c2ccnc(C(C)C)c2-3)[C@@H](C)C1 (stereo partly shown) [Example 22]
MIA PaCa-2; [1]
  IC50: 7 nM
H358; Homo sapiens, NCI-H358, 120 h
  IC50: 14 nM

## C=CC(=O)N1CCN(c2nc(=O)n3c4nc(c(F)cc24)-c2c(F)cccc2OCC(O)C(OC(=O)C(N)C(C)C)c2ccnc(C(C)C)c2-3)C(C)C1 [Example 23, 2^4-((S)-4-acryloyl-2-methylpiperazin-1-yl)-2^6,3^6-difluoro-6-hydroxy-1^2-isopropyl-2^2-oxo-2^1,2^2-dihydro-4-oxa-2(1,7)-pyrido[2,3-d]pyrimidina-1(3,4)-pyridina-3(1,2)-benzocycloheptane-7-yl L-valine ester]
MIA PaCa-2
  IC50: 9 nM
H358
  IC50: 11 nM

## C=CC(=O)N1CCN(c2nc(=O)n3c4nc(c(F)cc24)-c2c(F)cccc2OCC(O)C(OCCF)c2ccnc(C(C)C)c2-3)[C@@H](C)C1 (stereo partly drawn) [Example 24, 2^4-((S)-4-acryloyl-2-methylpiperazin-1-yl)-2^6,3^6-difluoro-7-(2-fluoroethoxy)-6-hydroxy-1^2-isopropyl-2^1,2^2-dihydro-4-oxa-2(1,7)-pyrido[2,3-d]pyrimidina-1(3,4)-pyridina-3(1,2)-benzocycloheptane-2^2-one]
MIA PaCa-2; [1]
  IC50: 8 nM
H358; Homo sapiens, NCI-H358, 120 h
  IC50: 17 nM
